Source: patent US4575508A, “2-Substituted 1-(3'-aminoalkyl)-1,2,3,4-tetrahydro-β-carbolines, and their use as antiarrhythmic agents” (BASF Aktiengesellschaft, priority 1982, dated 1986)
Where two headings read alike, the source gives them in different places.

What was measured:
Format in all cases: in vivo, male Sprague-Dawley rats
[1] = test system: aconitine-induced arrhythmia; experiment: Aconitine-induced arrhythmia in rats, oral administration (antiarrhythmic activity); conditions: for ED50: Rattus norvegicus, po, 1 h, read-out: Aconitine-induced arrhythmia ED 50% (dose which prolongs the aconitine infusion duration by 50%); for times more effective than quinidine on aconitine-induced arrhythmia / R.A. (relative activity, based on quinidine = 1.00): rat, oral; for R.A. (relative activity, based on quinidine = 1.00): aconitine-induced arrhythmia; for antiarrhythmic action (in words): general statement
Protocol: (§1) To investigate the antiarrhythmic activity, the substances were administered orally to male Sprague-Dawley rats each weighing 200-250 g. 45 minutes later, the animals were anesthetized with sodium thiobutabarbital (100 mg/kg, administered intraperitoneally). Aconitine was used as the arrhythmogenic substance, and was infused intravenously 60 minutes after administration of the substance (dosage rate: 0.005 mg per kg per min.). […] The onset of these arrhythmias could be delayed by means of antiarrhythmics, the delay achieved being dose-dependent.
Linear relationships exist between the logarithms of the doses (mg/kg) of the test substances and the relative prolongation of the aconitine infusion duration (Δ%), from which relationships the dose which prolongs the infusion duration by 50% can be determined, as the ED 50%.
The known antiarrhythmic quinidine was used as a comparative substance.

[2] = Toxicity: dose at which first cardiotoxic or neurotoxic symptoms occur, rat, oral administration; conditions: in vivo
Protocol: as §1
(§2) For further characterization of the substances, the dose at which the first cardiotoxic symptoms (changes in the initial ECG) or neurotoxic symptoms (coordination disturbances, convulsions, etc.) occurred was determined from the decimal-geometric dosage progression (factor .cuberoot.10) used in the experiments.

rat = experiment: as above
Protocol: as §1, §2

Row | SMILES | ED50 [1] [mg/kg] | times more effective than quinidine on aconitine-induced arrhythmia [1] [times] | R.A. (relative activity, based on quinidine = 1.00) [1] | selectivity ratio ([2]; oral, measure of the therapeutic index, read-out: Toxicity Q (quotient of the toxic dose and the antiarrhythmically effective dose, ED 50%)) | Toxicity Dose (dose after the application of which the first toxic symptoms are observed) (rat; oral, cardiotoxic or neurotoxic symptoms) [mg/kg] | antiarrhythmic action (in words) [1] | selectivity ratio ([2]; po) | Toxicity Dose (dose after the application of which the first toxic symptoms are observed) (rat; in vivo, po) [mg/kg]
1 | CCCN(CCCC1c2c(c3ccccc3n2C)CCN1C(C)=O)C(C)C (stereo not drawn) [Example 46, 1-[3'-(Isopropylpropyl)-aminopropyl]-2-acetyl-9-methyl-1,2,3,4-tetrahydro-β-carboline] | 0.732 | 59 | 59.43 | 14 | 4.64 | – | – | –
2 | C=C[C@H]1C[N@@]2CC[C@H]1C[C@@H]2[C@@H](O)c1ccnc2ccc(OC)cc12 [quinidine, reference compound] | 43.5 | – | – | – | – | – | – | –
3 | CC(=O)N1CCc2c(n(C)c3ccccc23)C1CCCN(CC(C)C)CC(C)C (stereo not drawn) [Example 43, 1-[3'-(Di-2-methylpropyl)-aminopropyl]-2-acetyl-9-methyl-1,2,3,4-tetrahydro-β-carboline] | 0.803 | – | 54.17 | – | – | particularly active | 13 | 10
4 | CC(=O)N1CCc2c([nH]c3ccccc23)C1CCCN(C)C (stereo not drawn) [Example 4, 1-(3'-Dimethylaminopropyl)-2-acetyl-1,2,3,4-tetrahydro-β-carboline] | 13.5 | 3 | 3.22 | – | – | – | 16 | 215
5 | CC(=O)N1CCc2c([nH]c3ccccc23)C1CCCN1CCN(C)CC1 (stereo not drawn) [Example 21, 1-[3'-(4-Methylpiperazin-1-yl)-propyl]-2-acetyl-1,2,3,4-tetrahydro-β-carboline] | 14.6 | 3 | 2.98 | – | – | – | 15 | 215
6 | CCn1c2c(c3ccccc31)CCN(C(C)=O)C2CCCN1CCN(C)CC1 (stereo not drawn) [Example 44, 1-[3'-(4-Methylpiperazin-1-yl)-propyl]-2-acetyl-9-ethyl-1,2,3,4-tetrahydro-β-carboline] | 9.21 | – | 4.72 | – | – | – | 23 | 215
7 | CCC(C)N(CCCC1c2[nH]c3ccccc3c2CCN1C(C)=O)C(C)CC (stereo not drawn) [Example 33, 1-[3'-(Di-2-butyl)-aminopropyl]-2-acetyl-1,2,3,4-tetrahydro-β-carboline] | 1.57 | – | 27.71 | – | – | – | 14 | 21.5
8 | CCCCNCCCC1c2[nH]c3ccccc3c2CCN1C(C)=O (stereo not drawn) [Example 28, 1-(3'-n-Butylaminopropyl)-2-acetyl-1,2,3,4-tetrahydro-β-carboline] | 12.4 | – | 3.51 | – | – | – | 17 | 215
9 | CCCN(CCC)CCCC1c2c(c3ccccc3n2C)CCN1C(C)=O (stereo not drawn) [Example 42, 1-(3'-Dipropylaminopropyl)-2-acetyl-9-methyl-1,2,3,4-tetrahydro-β-carboline] | 0.842 | – | 51.66 | – | – | particularly active | 12 | 10
10 | CCCCN(CCCC)CCCC1c2[nH]c3ccccc3c2CCN1C(C)=O (stereo not drawn) [Example 31, 1-[3'-(Di-n-butyl)-aminopropyl]-2-acetyl-1,2,3,4-tetrahydro-β-carboline] | 1.71 | – | 25.44 | – | – | – | 13 | 21.5
